Test results as given in the NIST ThermoML archive (doi:10.1021/je100749m).
± gives the expanded uncertainty stated by the source.

Legend:
[1] = Crystal; DTA
[2] = Molar enthalpy of transition or fusion; conditions: Crystal; DSC

Normal melting temperature [1] [°C]	Molar enthalpy of transition or fusion [2] [kcal/mol]	SMILES
95.98 ± 0.53	5 ± 0.148	O=C(O)CCCC(=O)O [1,5-pentanedioic acid]
153.16 ± 0.53	8.46 ± 0.237	O=C(O)CCCCC(=O)O [1,6-hexanedioic acid]
122.93 ± 0.53	4.31 ± 0.131	O=C(O)c1ccccc1 [benzoic acid]
